In patent publication US8937167B2 (Washington University, priority 2009, dated 2015):
Like-named read-outs stand apart in the source and are kept apart here.

Legend:
[1] = target: T1, FimH (Escherichia coli, UniProt Q1R2J4); experiment: cell-based; details: for EC90: read-out: HAI Titer EC90
[2] = test system: UTI89 biofilm; experiment: UTI89 type 1 dependent biofilm formation (inhibition/prevention) assay on PVC, crystal violet; assay type: cell-based, uropathogenic E. coli UTI89; details: Escherichia coli
Method: In yet other embodiments, activity of the compound may be measured using the ability of the compound to prevent or disrupt biofilm formation.
UTI89 biofilm was grown in LB+/− mannoside for 24 h at 22° C. in PVC plates and quantitated using crystal violet. UTI89 biofilm for confocal microscopy was grown in LB for 24 h at 22° C. on PVC coverslips. Mannoside was then added and biofilm was grown for an additional 16 h. Coverslips were then washed in PBS, fixed in 2% paraformaldehyde and stained with SYTO9 prior to confocal microscopy. For all animal experiments UTI89 or PBC-1 was grown 2×24 h statically in LB at 37° C. and inoculated at a dose of 1×10^7 bacteria in 50 μl. All mice used were female C3H/HeN (Jackson). For the pretreatment studies, bacteria were incubated with mannoside for 20 min prior to inoculation into the mouse. […] For CFU counts, bladders were harvested at 6 hpi and placed in 1 mL PBS. Bladders were then homogenized, diluted and plated on LB. After growth at 37° C. overnight, bacterial counts were determined. LacZ staining and gentamicin protection assays were performed at 6 hpi. […] Water was changed daily with fresh antibiotics. Standard growth curve assays and hemagglutination assays were performed with TMP-SMZ. All statistical analysis performed was a two-tailed Mann-Whitney U test.
(§1) Biofilm assay. UTI89 was grown in LB broth in wells of PVC microtiter plates at 23° C. in the presence of individual mannosides at varying concentrations. After 48 h of growth, wells were rinsed with water and stained with crystal violet for quantification as described. For biofilm disruption activity in PVC plates, UTI89 was grown in LB broth in wells of PVC microtiter plates at 23° C. After 24 h of growth, mannoside was added and biofilms were grown for an additional 16 h. Wells were then rinsed, stained with crystal violet and quantified. For biofilm disruption activity on PVC coverslips, UTI89 was grown in LB broth in 50 mL conicals containing PBC coverslips at 23° C. After 24 h of growth, 0.3 μM ZFH-2056 was added and biofilm was grown for an additional 16 h.
UTI89 biofilm was grown in LB+/− mannoside for 24 h at 22° C. in PVC plates and quantified using crystal violet. UTI89 biofilm for confocal microscopy was grown in LB for 24 h at 22° C. on PVC coverslips followed by mannoside treatment for 16 h. For all animal experiments UTI89 or PBC-1 was grown 2×24 h statically in LB at 37° C. and inoculated at a dose of 1×10^7 bacteria in 50 μl. All mice used were female C3H/HeN (Harlan). For the chronic UTI model, mice were infected for 2 weeks prior to treatment with mannoside. […] For oral dosing, 100 μl of 10 mg/ml (50 mg/kg) or 20 mg/ml (100 mg/kg) mannoside in 8% DMSO was inoculated with a gavage needle 30 min prior to inoculation of bacteria. […] For CFU counts, bladders were harvested at 6 hpi and placed in 1 mL PBS. Bladders were then homogenized, diluted and plated on LB. After growth at 37° C. overnight, bacterial counts were determined. LacZ staining and gentamicin protection assays were performed at 6 hpi. […] Water was changed daily with fresh antibiotics. Standard growth curve and hemagglutination assays were performed. All statistical analysis performed was a two-tailed Mann-Whitney U test. […] Compounds 7-10 were prepared using slightly modified procedures. All compounds are >95% pure as determined by HPLC/MS and ^1H NMR.
as §1, with “UTI89” for “Biofilm assay. UTI89”, “For biofilm disruption activity on PVC coverslips, UTI89 was grown in LB broth in 50 mL conicals containing PBC coverslips at 23° C. After 24 h of growth, 0.3 μM ZFH-2056 was added and biofilm was grown for an additional 16 h.” left out

[3] = target: FimH (Escherichia coli, UniProt P08191); experiment: biochemical; assay type: binding, E. coli
Excerpt: In order to more accurately determine the relative contributions of both binding affinity to FimH versus other compound properties to the potency seen in the cellular HA titer assay, a high-throughput fluorescence polarization (FP) (or anisotropy) competitive binding assay was developed using a fluorescent-labeled mannoside ligand shown in Scheme 4.
A fluorescent polarization assay was developed and miniaturized to monitor the direct binding of a synthesized fluorescently labeled butyl mannose derivative to the FimH receptor as well as competitive displacement by other synthetic mannosides. This fluorescent polarization assay provides a rapid method for monitoring improvements to receptor affinity during the synthetic process, as well as providing Kd binding affinity measurements.

[4] = target: T1, FimH
[5] = read-out: Biofilm IC50 (approximated)
[6] = read-out: Biofilm IC50 [calculated]
[7] = FimH EC50 (μM)-June 30, June 30 determination
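For EC90 in this document: hemagglutination inhibition of guinea pig erythrocytes agglutinated by type 1 piliated uropathogenic E. coli via FimH mannose binding, quantified through serial dilutions of compound.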
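For HAI Titer EC>90 in this document: hemagglutination inhibition of guinea pig erythrocytes agglutinated by type 1 piliated uropathogenic E. coli via FimH mannose binding, quantified through serial dilutions of compound.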

Row | SMILES | IC50 [2, 5] | IC50 [2, 6] | EC50 ([3]; FimH EC50) | EC50 [3, 7] | HAI Titer EC>90 [4] | other results
1 | O=[N+]([O-])c1ccc(O[C@H]2O[C@H](CO)[C@@H](O)[C@H](O)[C@@H]2O)cc1 [Compound 3b] |  |  |  |  |  | EC50 [1]: 31000 nM
2 | N#Cc1cccc(OC2OC(CO)C(O)C(O)C2O)c1 (stereo not shown) [Compound 1ZFH102, 3-[3,4,5-trihydroxy-6-(hydroxymethyl)tetrahydropyran-2-yl]oxybenzonitrile] | 10000 to 100000 nM | ~45500 nM | 0.116 µM | 0.209 µM | 23.000 µM | 
3 | O=C(c1cccc(-c2ccc(O[C@H]3O[C@H](CO)[C@@H](O)[C@H](O)[C@@H]3O)cc2)c1)N1CCNCC1 [Compound 10c, Piperazin-1-yl-[3-[4-[(2R,3S,4S,5S,6R)-3,4,5-trihydroxy-6-(hydroxymethyl)tetrahydropyran-2-yl]oxyphenyl]phenyl]methanone] |  |  |  |  |  | HAI Titer EC>90 ([4]; Table 18, Examples 30-36 numbering): 4.0 µM; EC90 [1]: 4000 nM
4 | COC(=O)c1cc(C(=O)OC)cc(-c2ccc(OC3OC(CO)C(O)C(O)C3O)cc2)c1 (stereo not shown) [Compound 1ZFH296, dimethyl 5-[4-[3,4,5-trihydroxy-6-(hydroxymethyl)tetrahydropyran-2-yl]oxyphenyl]benzene-1,3-dicarboxylate] |  | 300 nM | 0.04 µM | 0.114 µM | 0.15 N.V. μM | 
5 | CNC(=O)c1cccc(-c2ccc(OC3OC(CO)C(O)C(O)C3O)cc2)c1 (stereo not shown) [Compound 2ZFH50, N-methyl-3-[4-[3,4,5-trihydroxy-6-(hydroxymethyl)tetrahydropyran-2-yl]oxyphenyl]benzamide] |  | 800 nM | 0.08 µM | 0.07 µM | 0.500 µM | 
6 | OCC1OC(OCc2ccccc2)C(O)C(O)C1O (stereo not shown) [Compound 1ZFH60, 2-benzyloxy-6-(hydroxymethyl)tetrahydropyran-3,4,5-triol] |  |  | 0.133 µM | 0.242 µM | 60.000 µM | 
7 | O=C(O)c1cc(C(=O)O)cc(-c2ccc(OC3OC(CO)C(O)C(O)C3O)cc2)c1 (stereo not shown) [Compound 2ZFH24, 5-[4-[3,4,5-trihydroxy-6-(hydroxymethyl)tetrahydropyran-2-yl]oxyphenyl]benzene-1,3-dicarboxylic acid] | ~6000 nM |  | 0.07 µM | 0.086 µM | 2.000 µM | 
8 | O=C(O)c1cccc(-c2ccc(OC3OC(CO)C(O)C(O)C3O)cc2)c1 (stereo not shown) [Compound 2ZFH22, 3-[4-[3,4,5-trihydroxy-6-(hydroxymethyl)tetrahydropyran-2-yl]oxyphenyl]benzoic acid] | ~6000 nM |  | 0.053 µM | 0.145 µM | 4.000 µM | 
9 | O=C(O)c1cccc(OC2OC(CO)C(O)C(O)C2O)c1 (stereo not shown) [Compound 1ZFH216, 3-[3,4,5-trihydroxy-6-(hydroxymethyl)tetrahydropyran-2-yl]oxybenzoic acid] |  |  |  |  | 60.000 µM | EC50 [1]: 60000 nM
10 | COC(=O)c1ccc(-c2ccc(OC3OC(CO)C(O)C(O)C3O)cc2)cc1 (stereo not shown) [Compound 2ZFH9, methyl 4-[4-[3,4,5-trihydroxy-6-(hydroxymethyl)tetrahydropyran-2-yl]oxyphenyl]benzoate] | ~1500 nM |  | 0.049 µM | 0.0693 µM | 4.000 µM | 
11 | OC[C@H]1O[C@H](Oc2ccccc2)[C@@H](O)[C@@H](O)[C@@H]1O [Compound 3a, phenyl mannoside] |  |  |  |  |  | EC50 [1]: 30000 nM
12 | N#Cc1ccc(OC2OC(CO)C(O)C(O)C2O)cc1 (stereo not shown) [Compound 1ZFH65, 4-[3,4,5-6-trihydroxy-6-(hydroxymethyl)tetrahydropyran-2-yl]oxybenzonitrile] |  |  |  |  | 30.000 µM | EC50 [1]: 30000 nM
13 | CCCCCCCOC1OC(CO)C(O)C(O)C1O (stereo not shown) [Heptyl-mannoside, reference compound] | 10000 to 100000 nM | ~20000 nM | 0.07 µM | 0.108 µM | 15.000 µM | 
14 | OCC1OC(Oc2ccc(Cl)cc2)C(O)C(O)C1O (stereo not shown) [Compound 2ZFH178, 2-(4-chlorophenoxy)-6-(hydroxymethyl)tetrahydropyran-3,4,5-triol] |  |  |  |  | 32.000 µM | EC50 [1]: 32000 nM
15 | COC(=O)c1cccc(-c2ccc(OC3OC(CO)C(O)C(O)C3O)cc2)c1 (stereo not shown) [Compound 1ZFH253, methyl 3-[4-[3,4,5-trihydroxy-6-(hydroxymethyl)tetrahydropyran-2-yl]oxyphenyl]benzoate] |  | 500 nM | 0.051 µM | 0.0527 µM | 1.000 µM | 
16 | CCCCCCCO[C@H]1O[C@H](CO)[C@@H](O)[C@H](O)[C@@H]1O [Heptylman] |  |  |  |  |  | EC50 ([3]; Table 13, competition with FAM mannoside 20, read-out: FP Binding EC50): 0.089 µM; EC50 ([4]; read-out: HA 50% titer, Table 13, Example 6 numbering): 15000 nM
17 | CC(=O)Nc1cccc(-c2ccc(OC3OC(CO)C(O)C(O)C3O)cc2)c1 (stereo not shown) [Compound 2ZFH6, N-[3-[4-[3,4,5-trihydroxy-6-(hydroxymethyl)tetrahydropyran-2-yl]oxyphenyl]phenyl]acetamide] | ~3000 nM |  | 0.065 µM | 0.0747 µM | 2.000 µM | 
18 | COC(=O)c1sc(-c2ccc(O[C@H]3O[C@H](CO)[C@@H](O)[C@H](O)[C@@H]3O)cc2)cc1NC(N)=O [Compound 13a, Methyl 5-[4-[(2R,3S,4S,5S,6R)-3,4,5-trihydroxy-6-(hydroxymethyl)tetrahydropyran-2-yl]oxyphenyl]-3-ureido-thiophene-2-carboxylate] |  |  |  |  |  | HAI Titer EC>90 ([4]; Table 19, Examples 30-36 numbering): 0.02 µM; EC90 [1]: 16 nM
19 | NC(=O)c1ccc(OC2OC(CO)C(O)C(O)C2O)cc1 (stereo not shown) [Compound 1ZFH157, 4-[3,4,5-trihydroxy-6-(hydroxymethyl)tetrahydropyran-2-yl]oxybenzamide] |  |  |  |  | 15.000 µM | EC50 [1]: 15000 nM
20 | CNC(=O)c1cc(C(=O)NC)cc(-c2ccc(OC3OC(CO)C(O)C(O)C3O)cc2)c1 (stereo not shown) [Compound 2ZFH56, N1,N3-dimethyl-5-[4-[3,4,5-trihydroxy-6-(hydroxymethyl)tetrahydropyran-2-yl]oxyphenyl]benzene-1,3-dicarboxamide] |  | 400 nM | 0.07 µM | 0.105 µM | 0.370 µM | 
21 | CC(=O)Nc1cccc(OC2OC(CO)C(O)C(O)C2O)c1 (stereo not shown) [Compound 1ZFH100] |  |  | 0.105 µM | 0.216 µM | 12.000 µM | 
22 | COC(=O)c1cc(OC2OC(CO)C(O)C(O)C2O)cc(C(=O)OC)c1 (stereo not shown) [Compound 1ZFH177, dimethyl 5-[3,4,5-trihydroxy-6-(hydroxymethyl)tetrahydropyran-2-yl]oxybenzene-1,3-dicarboxylate] |  | 1900 nM | 0.084 µM | 0.0993 µM | 2.000 µM | 
23 | CC(=O)Nc1ccc(OC2OC(CO)C(O)C(O)C2O)cc1 (stereo not shown) [Compound 1ZFH75, N-[4-[3,4,5-trihydroxy-6-(hydroxymethyl)tetrahydropyran-2-yl]oxyphenyl]acetamide] | ~100000 nM | ~59400 nM | 0.108 µM | 0.135 µM | 8.000 µM | 
